Source: patent publication US8119637B2, “Substituted pyrrolo[2,3-b]pyrazines and methods for kinase modulation, and indications therefor” (Plexxikon Inc., priority 2008, dated 2012)

Tests used:
Type in all cases: biochemical
Settings in all cases: method of U.S. Ser. No. 11/473,347 or similar
[1] = target: Kit (Homo sapiens, UniProt P10721); assay: Kit kinase activity assay
Excerpt: (§1) Assays for the activity of kinases, including, but not limited to, Fms, Kit, B-Raf, B-Raf V600E, B-Raf V600E/T5291 and c-Raf-1 are known in the art, for example as described in US Patent Publication Number US20070032519 and U.S. patent application Ser. No. 11/473,347 (see also, PCT publication WO2007002433), the disclosures of which are hereby incorporated by reference with respect to such assays.
(§2) Compounds P-0001 was screened by at least one of the methods described in U.S. patent application Ser. No. 11/473,347, or by similar methods.

[2] = target: Kdr (Homo sapiens, UniProt P35968); assay: Kdr kinase activity assay
Sequence of Kdr (P35968 20-1356): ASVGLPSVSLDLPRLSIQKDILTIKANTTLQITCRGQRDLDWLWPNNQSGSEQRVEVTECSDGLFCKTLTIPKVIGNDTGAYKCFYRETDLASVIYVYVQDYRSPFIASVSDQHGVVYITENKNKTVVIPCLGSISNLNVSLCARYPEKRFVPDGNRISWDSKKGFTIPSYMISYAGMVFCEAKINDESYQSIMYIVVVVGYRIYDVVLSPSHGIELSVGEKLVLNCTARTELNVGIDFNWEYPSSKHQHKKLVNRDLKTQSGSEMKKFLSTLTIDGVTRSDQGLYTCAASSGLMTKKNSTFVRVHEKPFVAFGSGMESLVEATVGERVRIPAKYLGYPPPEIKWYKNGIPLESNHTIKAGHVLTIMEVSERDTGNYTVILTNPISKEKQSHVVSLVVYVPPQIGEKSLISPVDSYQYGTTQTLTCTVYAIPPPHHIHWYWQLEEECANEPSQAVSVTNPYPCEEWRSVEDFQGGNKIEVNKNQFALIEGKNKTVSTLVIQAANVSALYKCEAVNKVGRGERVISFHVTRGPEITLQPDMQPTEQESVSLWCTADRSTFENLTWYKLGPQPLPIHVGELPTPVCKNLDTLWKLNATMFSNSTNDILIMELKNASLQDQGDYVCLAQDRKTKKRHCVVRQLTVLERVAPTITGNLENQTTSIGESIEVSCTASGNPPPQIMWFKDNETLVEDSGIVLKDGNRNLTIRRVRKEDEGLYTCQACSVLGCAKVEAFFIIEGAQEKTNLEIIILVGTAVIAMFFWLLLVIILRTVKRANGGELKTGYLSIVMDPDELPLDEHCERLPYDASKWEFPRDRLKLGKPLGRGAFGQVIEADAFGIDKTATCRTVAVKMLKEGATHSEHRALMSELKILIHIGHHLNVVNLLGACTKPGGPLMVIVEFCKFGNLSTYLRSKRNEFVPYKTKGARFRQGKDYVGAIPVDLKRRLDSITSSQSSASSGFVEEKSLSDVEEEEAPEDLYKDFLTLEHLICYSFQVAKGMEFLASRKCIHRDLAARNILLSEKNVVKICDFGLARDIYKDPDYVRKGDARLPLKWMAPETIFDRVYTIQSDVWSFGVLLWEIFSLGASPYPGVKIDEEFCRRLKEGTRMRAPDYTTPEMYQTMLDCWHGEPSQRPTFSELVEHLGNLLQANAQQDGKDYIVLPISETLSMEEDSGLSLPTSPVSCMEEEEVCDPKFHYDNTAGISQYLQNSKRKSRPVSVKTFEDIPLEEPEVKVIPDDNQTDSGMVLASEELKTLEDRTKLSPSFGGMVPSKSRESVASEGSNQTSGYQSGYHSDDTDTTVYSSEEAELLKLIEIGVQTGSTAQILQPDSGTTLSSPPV
Excerpt: as §1, §2

[3] = target: Btk (Homo sapiens, UniProt Q06187); assay: Btk kinase activity assay
Sequence of Btk (Q06187 whole entry): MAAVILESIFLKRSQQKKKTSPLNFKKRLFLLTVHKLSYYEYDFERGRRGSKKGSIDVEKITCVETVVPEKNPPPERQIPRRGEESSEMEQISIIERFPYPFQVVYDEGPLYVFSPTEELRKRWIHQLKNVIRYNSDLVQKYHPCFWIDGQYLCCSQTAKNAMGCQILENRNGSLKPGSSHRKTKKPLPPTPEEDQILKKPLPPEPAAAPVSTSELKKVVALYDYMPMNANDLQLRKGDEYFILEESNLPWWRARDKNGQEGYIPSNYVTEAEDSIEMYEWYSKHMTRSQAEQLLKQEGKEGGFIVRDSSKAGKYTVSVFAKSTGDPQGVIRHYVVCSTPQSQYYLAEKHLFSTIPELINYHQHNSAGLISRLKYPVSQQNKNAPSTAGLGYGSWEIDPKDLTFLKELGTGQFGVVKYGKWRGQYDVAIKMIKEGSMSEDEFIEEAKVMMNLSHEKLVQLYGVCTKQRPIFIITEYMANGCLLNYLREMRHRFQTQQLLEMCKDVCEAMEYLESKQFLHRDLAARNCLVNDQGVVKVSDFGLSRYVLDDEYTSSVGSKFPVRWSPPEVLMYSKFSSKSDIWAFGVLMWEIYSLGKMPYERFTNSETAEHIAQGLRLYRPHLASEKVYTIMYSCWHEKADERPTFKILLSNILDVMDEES
Excerpt: as §1, §2

[4] = target: Fms (Homo sapiens, UniProt P07333); assay: Fms kinase activity assay
Sequence of Fms (P07333 20-972): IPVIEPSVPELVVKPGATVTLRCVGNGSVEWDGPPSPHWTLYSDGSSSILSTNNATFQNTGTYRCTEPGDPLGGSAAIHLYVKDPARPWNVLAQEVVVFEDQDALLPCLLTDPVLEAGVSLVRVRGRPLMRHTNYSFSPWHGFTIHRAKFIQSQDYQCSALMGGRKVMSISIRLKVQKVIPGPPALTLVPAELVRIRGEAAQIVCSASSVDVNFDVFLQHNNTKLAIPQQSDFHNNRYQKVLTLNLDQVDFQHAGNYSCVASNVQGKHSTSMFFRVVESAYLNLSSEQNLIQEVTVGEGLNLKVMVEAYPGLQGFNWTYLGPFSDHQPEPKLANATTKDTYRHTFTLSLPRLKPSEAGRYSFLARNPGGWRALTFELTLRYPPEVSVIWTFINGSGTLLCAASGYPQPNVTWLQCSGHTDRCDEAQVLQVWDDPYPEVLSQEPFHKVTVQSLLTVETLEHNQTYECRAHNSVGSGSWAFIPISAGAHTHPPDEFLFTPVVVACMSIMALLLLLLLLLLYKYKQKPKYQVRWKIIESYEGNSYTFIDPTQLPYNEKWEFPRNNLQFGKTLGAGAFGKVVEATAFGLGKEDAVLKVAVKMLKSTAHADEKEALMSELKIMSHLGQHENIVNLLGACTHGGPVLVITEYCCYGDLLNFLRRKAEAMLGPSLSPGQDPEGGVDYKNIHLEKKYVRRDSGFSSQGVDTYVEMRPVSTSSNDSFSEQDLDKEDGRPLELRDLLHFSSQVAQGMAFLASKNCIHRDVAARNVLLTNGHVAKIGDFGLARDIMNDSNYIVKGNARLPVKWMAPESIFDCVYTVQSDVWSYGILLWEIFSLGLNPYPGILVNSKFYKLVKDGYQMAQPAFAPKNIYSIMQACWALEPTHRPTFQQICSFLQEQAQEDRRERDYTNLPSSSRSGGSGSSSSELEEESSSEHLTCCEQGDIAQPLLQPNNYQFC
Excerpt: as §1, §2

Sequence of Kit (P10721 26-976): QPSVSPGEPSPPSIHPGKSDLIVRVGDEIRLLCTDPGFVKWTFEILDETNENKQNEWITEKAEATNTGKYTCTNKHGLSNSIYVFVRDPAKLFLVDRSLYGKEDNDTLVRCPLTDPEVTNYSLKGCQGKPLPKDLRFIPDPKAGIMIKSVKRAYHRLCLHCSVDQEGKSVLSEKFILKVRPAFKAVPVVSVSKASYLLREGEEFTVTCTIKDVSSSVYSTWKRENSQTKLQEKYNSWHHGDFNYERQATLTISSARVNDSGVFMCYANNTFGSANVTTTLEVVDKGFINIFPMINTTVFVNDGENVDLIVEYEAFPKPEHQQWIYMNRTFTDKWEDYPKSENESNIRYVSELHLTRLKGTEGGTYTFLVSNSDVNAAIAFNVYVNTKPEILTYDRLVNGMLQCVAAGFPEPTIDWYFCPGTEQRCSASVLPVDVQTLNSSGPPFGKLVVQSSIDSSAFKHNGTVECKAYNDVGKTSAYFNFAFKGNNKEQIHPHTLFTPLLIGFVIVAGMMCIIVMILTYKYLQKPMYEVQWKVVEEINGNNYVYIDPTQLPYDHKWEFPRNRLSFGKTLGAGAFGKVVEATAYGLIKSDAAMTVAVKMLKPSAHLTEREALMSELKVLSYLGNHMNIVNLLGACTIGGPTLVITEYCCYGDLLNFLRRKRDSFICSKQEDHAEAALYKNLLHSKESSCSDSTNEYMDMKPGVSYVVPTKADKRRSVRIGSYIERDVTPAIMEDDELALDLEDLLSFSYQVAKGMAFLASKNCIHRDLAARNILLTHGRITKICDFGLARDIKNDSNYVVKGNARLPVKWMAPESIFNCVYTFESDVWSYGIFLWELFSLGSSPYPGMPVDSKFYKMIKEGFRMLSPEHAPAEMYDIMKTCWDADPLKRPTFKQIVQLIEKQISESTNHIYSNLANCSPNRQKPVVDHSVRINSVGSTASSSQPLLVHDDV

- IC50 [1]: < 10 µM
- IC50 [2]: < 10 µM
- IC50 [3]: < 10 µM
- IC50 [4]: < 10 µM
SMILES: COc1ccc(CNc2ccc(Cc3c[nH]c4nccnc34)cn2)cn1 [Compound P-0001, (6-methoxy-pyridin-3-ylmethyl)-[5-(5H-pyrrolo[2,3-b]pyrazin-7-ylmethyl)-pyridin-2-yl]-amine]
